# Earlier results in patent US20150079136A1, “CONTROLLED RELEASE PHARMACEUTICAL FORMULATIONS OF DIRECT THROMBIN INHIBITORS” (RUBICON RESEARCH PRIVATE LIMITED, priority 2012, published 2015).
# Structures can show the parent of a compound that is named as a salt. Where two headings read alike, the source gives them in different places.
# Tests used:
# [1] = not given; remark: listed apart in the source
# [2] = not given; remark: listed apart in the source
# P-glycoprotein = P-glycoprotein (Homo sapiens, UniProt P08183)
# Sequence of P-glycoprotein (P08183 whole entry): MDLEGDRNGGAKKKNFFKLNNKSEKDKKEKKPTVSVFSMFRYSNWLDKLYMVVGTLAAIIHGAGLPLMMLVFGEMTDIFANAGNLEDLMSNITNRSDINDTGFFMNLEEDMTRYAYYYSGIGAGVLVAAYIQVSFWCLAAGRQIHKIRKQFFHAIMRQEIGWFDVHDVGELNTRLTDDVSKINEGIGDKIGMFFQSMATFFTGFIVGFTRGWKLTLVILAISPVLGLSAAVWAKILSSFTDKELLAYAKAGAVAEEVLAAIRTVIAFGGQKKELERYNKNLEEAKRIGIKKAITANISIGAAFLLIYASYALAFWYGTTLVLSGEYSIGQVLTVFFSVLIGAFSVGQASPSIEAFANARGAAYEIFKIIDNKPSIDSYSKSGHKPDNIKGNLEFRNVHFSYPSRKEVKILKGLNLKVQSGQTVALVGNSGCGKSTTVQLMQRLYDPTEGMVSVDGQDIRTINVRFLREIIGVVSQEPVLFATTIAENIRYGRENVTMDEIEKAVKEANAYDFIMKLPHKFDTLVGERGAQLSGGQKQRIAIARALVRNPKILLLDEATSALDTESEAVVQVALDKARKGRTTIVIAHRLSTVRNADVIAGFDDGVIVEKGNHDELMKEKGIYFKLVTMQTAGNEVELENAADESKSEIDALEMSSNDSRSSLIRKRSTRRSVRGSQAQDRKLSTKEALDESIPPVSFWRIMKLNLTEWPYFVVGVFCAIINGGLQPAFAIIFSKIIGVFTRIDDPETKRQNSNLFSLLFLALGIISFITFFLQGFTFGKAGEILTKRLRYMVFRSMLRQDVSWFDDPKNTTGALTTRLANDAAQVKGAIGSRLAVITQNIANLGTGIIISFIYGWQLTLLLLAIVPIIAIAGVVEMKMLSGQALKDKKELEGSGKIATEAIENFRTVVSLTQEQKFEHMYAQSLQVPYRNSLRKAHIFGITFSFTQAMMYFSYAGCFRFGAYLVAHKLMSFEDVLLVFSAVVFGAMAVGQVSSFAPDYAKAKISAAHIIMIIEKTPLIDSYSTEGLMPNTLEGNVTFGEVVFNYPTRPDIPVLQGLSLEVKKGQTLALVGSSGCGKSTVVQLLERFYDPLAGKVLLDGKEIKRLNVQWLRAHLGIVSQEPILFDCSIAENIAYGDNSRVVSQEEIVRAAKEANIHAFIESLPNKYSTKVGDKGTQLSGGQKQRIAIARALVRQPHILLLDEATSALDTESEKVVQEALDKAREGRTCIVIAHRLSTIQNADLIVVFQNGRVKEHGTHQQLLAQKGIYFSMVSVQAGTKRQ
SMILES,solubility in acidic media (acidic media),solubility in neutral and basic media (neutral and basic media),BCS class (poor aqueous solubility but good membrane permeability),elimination half life ([1]; multiple dosing),elimination half life ([1]; single dosing) [h],sensitivity to light irradiation ([2]; light irradiation),hygroscopicity ([2]; powder),degradation in the presence of moisture ([2]; presence of moisture),stability in the solid state ([2]; solid state),substrate of efflux transporter P-glycoprotein (P-glycoprotein),effect of high-fat meal on the bioavailability of dabigatran ([1]; coadministration with a high-fat meal),absolute bioavailability of dabigatran ([1]; following oral administration of dabigatran etexilate),"increase in oral bioavailability ([1]; marketed formulation, pellets taken without the capsule shell vs intact capsule) [%]"
"CCCCCCOC(=O)NC(=N)c1ccc(NCc2nc3cc(C(=O)N(CCC(=O)OCC)c4ccccn4)ccc3n2C)cc1 [DEM, dabigatran etexilate mesylate]",rather high solubility,very poor solubility,Class II,about 8 hours,12 to 17,not sensitive,non-hygroscopic,predominantly undergoes degradation by hydrolytic pathways,stable,–,–,–,–
"CCCCCCOC(=O)NC(=N)c1ccc(NCc2nc3cc(C(=O)N(CCC(=O)OCC)c4ccccn4)ccc3n2C)cc1 [dabigatran etexilate, 1-methyl-2-[N-[4-(N-n-hexyloxycarbonylamidino)phenyl]aminomethyl]benzimidazol-5-ylcarboxylic acid-N-(2-pyridyl)-N-(2 ethoxycarbonylethyl)amides]",–,–,–,–,–,–,–,–,–,substrate,no effect,3-7%,75
